Patent US20110152166A1, “METHOD OF MODULATION OF PROTEIN PHOSPHORYLATION-DEPENDENT CONFORMATIONAL TRANSITIONS WITH LOW MOLECULAR WEIGHT COMPOUNDS” (priority 2006, published 2011)
Ends that are not written are not given here.

Columns and labels:
PKCζ = biological target: T1, PKCζ (Homo sapiens, UniProt Q05513); assay: AGC kinase panel activity assay (MBP); format: biochemical; details: for PKCξ (%) activity: 1% DMSO = 100%
T1 construct: deuteron uptake in a full-length AGC kinase; For this analysis we chose PKCζ; made in house; host or cells: HEK293
T1 sequence (Q05513 1-592): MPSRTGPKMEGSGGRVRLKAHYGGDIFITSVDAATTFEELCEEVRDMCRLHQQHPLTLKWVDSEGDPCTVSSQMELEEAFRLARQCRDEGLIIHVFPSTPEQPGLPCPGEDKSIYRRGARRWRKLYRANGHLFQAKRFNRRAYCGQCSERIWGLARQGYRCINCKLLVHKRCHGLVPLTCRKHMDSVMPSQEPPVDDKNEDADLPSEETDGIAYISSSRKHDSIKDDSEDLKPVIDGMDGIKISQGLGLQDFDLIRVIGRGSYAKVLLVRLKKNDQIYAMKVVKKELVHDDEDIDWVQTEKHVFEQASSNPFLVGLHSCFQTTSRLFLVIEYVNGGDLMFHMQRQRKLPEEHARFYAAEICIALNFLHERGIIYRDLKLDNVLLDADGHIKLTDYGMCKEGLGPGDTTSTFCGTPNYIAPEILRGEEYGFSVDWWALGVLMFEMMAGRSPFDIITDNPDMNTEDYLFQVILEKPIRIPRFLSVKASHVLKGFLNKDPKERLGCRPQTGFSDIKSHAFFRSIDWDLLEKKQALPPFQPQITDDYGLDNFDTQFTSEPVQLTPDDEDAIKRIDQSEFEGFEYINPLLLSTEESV
Experimental: (§1) Protein kinase activity tests were performed essentially as previously described (Balendran et al., 2000; Biondi et al., 2000; Biondi et al., 2001). Substrates used were either MBP (for PKCζ or polypeptides (Crosstide for PKB, S6K, SGK and PRK2; T308tide for PDK1, and Kemptide for PKA). PKA (Sigma) was measured in the presence of 100 μM cAMP. Alternatively, assays were performed in a 96 well format, aliquots spotted on p81 phosphocellulose papers (Whatmann), washed in 0.01% phosphoric acid, dried, and then exposed and analysed using Phospholmager technology (Storm, Molecular Dynamics). Activity measurements were performed in duplicates with less than 10% difference between duplicate pairs. Experiments were repeated at least twice, although most of the experiments were repeated multiple times, with similar results.
Activity assays for each kinase were performed as described in Materials and Methods in the presence of 1% DMSO (100%). Except PKA, all protein kinases were produced as a GST-fusion. S6K1, PKBα, SGK mutants used were S6K1-T2-[Thr412Glu], PKBa[Ser473Asp] and ΔN-SGK[Ser422Asp].

PDK1 50-360 [CT-PIF] = biological target: T2, PDK1 50-360 [CT-PIF] (Homo sapiens, UniProt O15530); assay: PDK1 activity assay with T308tide; format: biochemical; details: for AC50: PDK1 50-360 [CT-PIF]; for effect on specific activity of chimera (in words): PDK1 50-360[CT-PIF] chimera
T2 construct: comprising residues 50-360 joined to the last 48 aminoacids from PRK2; His-tag (pFastbac-HT) (N); made in house; host or cells: insect cells (pFastbac-HT baculovirus system); the other entry of the earlier key: PKN2 (Q16513, Serine/threonine-protein kinase N2)
T2 sequence (O15530 with tags, fused parts or gaps): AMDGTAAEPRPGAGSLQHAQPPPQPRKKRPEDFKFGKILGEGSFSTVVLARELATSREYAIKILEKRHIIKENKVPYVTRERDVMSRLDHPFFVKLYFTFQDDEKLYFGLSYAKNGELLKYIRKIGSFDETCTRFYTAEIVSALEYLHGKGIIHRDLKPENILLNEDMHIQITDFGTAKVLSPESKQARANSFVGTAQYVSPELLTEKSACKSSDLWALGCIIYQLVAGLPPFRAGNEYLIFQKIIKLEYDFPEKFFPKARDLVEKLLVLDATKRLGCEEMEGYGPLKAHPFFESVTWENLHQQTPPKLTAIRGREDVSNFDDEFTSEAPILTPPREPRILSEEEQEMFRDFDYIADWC
Source text: We generated a PDK1 chimera consisting of the catalytic domain of PDK1 comprising residues 50-360 joined to the last 48 aminoacids from PRK2, which include the sequence of PIFtide (PDK1 50-360[CT-PIF]). PIFtide binds with high affinity to PDK1. Therefore, we expected that the HM/PIF-pocket in this protein would be strongly bound to the C-terminus of PRK2. In this scenario, the specific activity of the PDK1 50-360[CT-PIF] chimera would not be affected by compounds which otherwise would bind to the PDK1 50-360 HM/PIF-pocket. The PDK1 50-360[CT-PIF] chimera had 1.5-fold higher specific activity than the PDK1 catalytic domain alone. Furthermore, the activity of PDK1 50-360[CT-PIF] chimera was not affected by PIFtide at concentrations that activated the PDK1 50-360 protein (FIG. 2G). Finally, PDK1 50-360[CT-PIF] specific activity was not affected by compound 1, further supporting the notion that PIFtide and compound 1 targeted an overlapping site in the catalytic domain of PDK1.
For the spectrofluorometer assay, the PDK1 protein used was the catalytic domain of PDK1 (50-359) produced in SF9 insect cells using baculovirus expression technology (Invitrogen). PDK1 was cloned in pFastbac-HT plasmid (NcoI-KpnI sites) taking advantage of an endogenous NcoI site in the PDK1 DNA sequence. The codon corresponding to aminoacid 360 was replaced by a stop codon. […]
as §1
PDK1 activity assay was performed in a 20 μl mix containing 50 mM Tris-HCl pH 7.5, 0.05 mg/ml BSA, 0.1% β-mercaptoethanol, 10 mM MgCl2, 100 μM [γ^32P]ATP (5-50 cpm/pmol), 0.003% Brij, 150 ng PDK1, and T308tide (from 0.05 to 1 mM). PDK1 specific activity was approximately 5 U/mg (when measured at 1 mM T308tide). […]
PDK1 activity was measured at room temperature using a polypeptide substrate derived from the activation loop phosphorylation site of PKB, T308tide (0.1 mM). […]

| Compound | PKCξ (%) activity (PKCζ; 20 μM compound) | PKCξ (%) activity (PKCζ; 200 μM compound) | AC50 (PDK1 50-360 [CT-PIF]) | effect on specific activity of chimera (in words) (PDK1 50-360 [CT-PIF]) | effect on PKCζ activity (in words) (PKCζ; 20 μM) | inhibition of PKCζ (in words) (PKCζ; panel, concentration not given) |
| --- | --- | --- | --- | --- | --- | --- |
| COC(=O)CSC(CC(=O)c1ccc(Cl)cc1)c1ccccc1 (stereo not shown) [Compound 2] | 104% | 86% | – | – | – | – |
| REPRILSEEEQEMFRDFDYIADWC [PIFtide, reference compound] | – | – | No Effect | not affected | – | – |
| O=C(O)CSC(CC(=O)c1ccc(Cl)cc1)c1ccccc1 (stereo not shown) [Compound 1] | 94% | 21% | No Effect | not affected | no significant effect | inhibited PKCζ |
